Molecules are shown by their SMILES.

The text below walks through data of patent US20160178605A1, “Electrical Cell-substrate Impedance Sensor (ECIS)” (priority 2015, published 2016).

The assay relates to MCF-7 cells. Kind of assay: SiNW-ECIS impedance and capacitance response of MCF-7 cells to antitubulin drugs. Particulars: PTX 0.1 nano-moles per liter; for normalized capacitance change (ΔC %) vs control sample / normalized impedance change (ΔZ %) vs control sample: MCF-7, 2 hours (T1) after drug incubation; for normalized capacitance change (ΔC %) vs control sample / normalized impedance change (ΔZ %) vs control sample / change in norm of impedance of treated cells between T1 and T2 / norm of capacitive changes, control sample more than drug treated values: ABZ 2.1 nano-moles per liter; for normalized impedance change (ΔZ %) vs control sample: mean; for norm of capacitive changes, control sample more than drug treated values: MCF-7, 6 hours (T2) after drug incubation. Type of assay: cell-based, human. The method, then:
In this example, the diagnostic response of cells membrane to extremely low dose of antitubulin drugs is investigated. Initially, MCF-7 cell lines, isolated from grade I human breast tumors, were obtained from the National Cell Bank of Iran (Pasteur Institute). Then, cells were maintained in a CO2 incubator (37° C., 5% CO2) in RPMI-1640 medium supplemented with 5% fetal bovine serum, and 1% penicillin/streptomycin. The fresh medium was replaced every other day. Then, the cultured cells were dropped on the surface of the SiNW-ECIS, designed and fabricated pursuant to teachings of the present application. Prior to each experiment, cells were trypsinized to be detached from the substrate and resuspended on the SiNW surface. To minimize the effect of trypsinization, the procedure may last for less than 4 minutes at room temperature of about 20° C. The samples were held in an incubator for about 4 hours to achieve cells attachment on the SiNWs. Thereafter, the ABZ drug with low concentrations of about 2.1 nano-moles per liter and the PTX drug with low concentrations of about 0.1 nano-moles per liter were added to individual samples. Finally, the signal recording and biological assays were investigated about 2 hours and 6 hours after the drug treatment (6 hours and 10 hours after the beginning of culturing process).
Referring to FIGS. 12A-12G, comparative normalized diagrams of impedance (designated by ΔZ % and represented by solid black lines) and capacitance changes (designated by ΔC % and represented by dashed grey lines) are illustrated for MCF-7 cells seeded on SiNW electrodes after treating by 2.1 nano-moles per liter of ABZ and 0.1 nano-moles per liter of PTX. The time interval between the drug incubation and the signal extraction are 2 hours (designated by T1) and 6 hours (designated by T2). In addition, the same diagrams are plotted for control sample prepared with no drug treatment stage.
According to the method described in the present example, the samples were maintained in an incubator so that the signal extraction was repeated 10 hours after cells dropping (6 hours after drug incubation for treated samples) to monitor the time evolution of drug induced MT polymerization/depolymerization on bioelectrical response of the membrane.

The mark [1] stands for this setting: MCF-7, 2 hours (T1) vs 6 hours (T2) after drug incubation.

On to `CCCSc1ccc2nc(NC(=O)OC)[nH]c2c1` [ABZ, Albendazole], for which the “normalized capacitance change (ΔC %) vs control sample” value came out at 70%; the “normalized impedance change (ΔZ %) vs control sample” value came out at 25%; the “norm of capacitive changes, control sample more than drug treated values” is “about 90%”. Under setting [1], the “change in norm of impedance of treated cells between T1 and T2” value is recorded as “about 60%”.
For the compound `CC(=O)O[C@H]1C(=O)[C@@]2(C)[C@H]([C@H](OC(=O)c3ccccc3)[C@]3(O)C[C@H](OC(=O)[C@H](O)[C@@H](NC(=O)c4ccccc4)c4ccccc4)C(C)=C1C3(C)C)[C@]1(OC(C)=O)CO[C@@H]1C[C@@H]2O` [PTX, Paclitaxel], the “normalized capacitance change (ΔC %) vs control sample” value was “about 60%”; the “normalized impedance change (ΔZ %) vs control sample” value is recorded as “about 50%”; the “norm of capacitive changes, control sample more than drug treated values” is approximately 75%. Besides, under setting [1], the “change in norm of impedance of treated cells between T1 and T2” value was 15%; the “time dependent variation in capacitive behavior between T1 and T2” value is listed as “about 85%”.
